Patent US20240091366A1, “NOVEL ACID-SENSITIVE APTAMER TRIPTOLIDE CONJUGATE AND APPLICATIONS” (priority 2022, published 2024)
Where “and” joins values, the source holds several entries; their conditions need not be identical. Identical values can stand only once.

Legend:
Test in all cases: MTT assay, cell proliferation inhibition
Type in all cases: cell-based
[1] = test system: breast cancer cell line MDA-MB-231; details: 48 h
From the text: (§1) Material: aptamer triptolide conjugate (AS1411-TP). Triptolide (TP) was provided by Shanghai Yaji Biotechnology Co. Ltd; aptamer (AS1411) was obtained from Chengdu Pilot Drug Development Co. Ltd; trypsin, thiazolyl blue (MTT) (Biofroxx, Germany); dimethyl sulfoxide (DMSO) (MP Biomedicals, France); fetal bovine serum (FBS) (Newzerum, New Zealand); DMEM medium, RPMI1640 medium, Petri dishes, 96-well plates (Corning, USA); colon cancer cells HCT116, breast cancer cells MDA-MB-231, non-small-cell lung cancer cells A549, pancreatic cancer cells PANC-1, and hepatocellular carcinoma cells HepG2 were purchased from the Shanghai Cell Bank of the Chinese Academy of Sciences and preserved in the laboratory.
(§2) Take the tumor cells HCT116, MDA-MB-231, A549, PANC-1 and HepG2 cell lines from the liquid nitrogen tank, place them in a 37° C. water bath, wait for the frozen cells to melt into cell suspension, centrifuge the cells at 1000 r/min for 3 min, discard the supernatant, add 1 ml of fresh complete medium containing 10% fetal bovine serum and 1% double antibody to mix the cells, then add 5 ml of medium, gently and repeatedly blowing the cells with a pipette gun to make them mix well. Then add 5 ml of medium, blow the cells gently and repeatedly with a pipette gun to mix them well, and finally transfer the cell suspension to a […] and label the cell name, cell number, date of resuscitation and the operator's name, and place it in a cell culture incubator for cultivation. (HCT116, PANC-1 and HepG2 cell lines were cultured in DMEM medium, while MDA-MB-231 cell line and A549 cell line were cultured in RPMI1640 medium).
(§3) Take HCT116, MDA-MB-231, A549, PANC-1, HepG2 cells with good growth status, remove the medium, add 1 ml of sterile PBS to wash, add 1.5 ml of trypsin to digest the cells, about 2 min later the cells become round and fall off, add 1.5 ml of medium to terminate the digestion, transfer it to centrifugal tube, centrifuge at 1000 r/min for 3 min, discard the supernatant, add 1 ml of fresh medium to resuspend, then add fresh medium for 1:3 distribution to other culture dishes, and label the date of transmission and the number of generations. Place in the cell culture incubator for cultivation.
(§4) Take HCT116, MDA-MB-231, A549, PANC-1, HepG2 cells with good growth status, by the same operation as the cell passaging experiment, after cell resuspension, cell counting with hemocyte counting plate, with 2500 cells/well, plant in 96-well plate, after 24 h of cell culture, remove the original medium, add medium containing different concentrations of drugs and continue to cultivate for 48 hours. After 24 h of cell culture, the original medium was removed and the medium containing different concentrations of drugs was added to continue the culture for 48 hours. […] The above steps were repeated three times.

[2] = test system: colon cancer cell line HCT116; details: 48 h
From the text: as §1, §2, §3, §4

[3] = test system: hepatocellular carcinoma cell line HepG2; details: 48 h, samples 1-3
From the text: as §1, §2, §3, §4

CC(C)[C@]12O[C@H]1[C@@H]1O[C@]13[C@]1(O[C@H]1C[C@H]1C4=C(CC[C@@]13C)C(=O)OC4)[C@@H]2O [TP, Triptolide]
inhibition at 0.0031 µM ([1]; Homo sapiens, MDA-MB-231, 48 h, MDA-MB-231, 3.1 nM, samples 1-3, read-out: cell proliferation inhibition rate): 14.6%
inhibition at 0.0063 µM ([1]; Homo sapiens, MDA-MB-231, 48 h, MDA-MB-231, 6.3 nM, samples 1-3, read-out: cell proliferation inhibition rate): 25.7%
inhibition at 0.0125 µM ([1]; Homo sapiens, MDA-MB-231, 48 h, MDA-MB-231, 12.5 nM, samples 1-3, read-out: cell proliferation inhibition rate): 31.7%
inhibition at 0.025 µM ([1]; Homo sapiens, MDA-MB-231, 48 h, MDA-MB-231, 25.0 nM, samples 1-3, read-out: cell proliferation inhibition rate): 42.1%
inhibition at 0.05 µM ([1]; Homo sapiens, MDA-MB-231, 48 h, MDA-MB-231, 50.0 nM, samples 1-3, read-out: cell proliferation inhibition rate): 71.5%
inhibition at 0.1 µM ([1]; Homo sapiens, MDA-MB-231, 48 h, MDA-MB-231, 100.0 nM, samples 1-3, read-out: cell proliferation inhibition rate): 83%
inhibition at 0.2 µM ([1]; Homo sapiens, MDA-MB-231, 48 h, MDA-MB-231, 200.0 nM, samples 1-3, read-out: cell proliferation inhibition rate): 98.1%
IC50 ([1]; Homo sapiens, breast cancer cells MDA-MB-231, MTT): 22.4 ± 0.24 nM
cell proliferation inhibition rate ([1]; MDA-MB-231, 3.1 nM, samples 1-3, 0.0031 µM): 11.4171 and 14.3285
cell proliferation inhibition rate ([1]; MDA-MB-231, 6.3 nM, samples 1-3, 0.0063 µM): 23.5657 and 26.9811
cell proliferation inhibition rate ([1]; MDA-MB-231, 12.5 nM, samples 1-3, 0.0125 µM): 36.7429 and 35.2571
cell proliferation inhibition rate ([1]; MDA-MB-231, 25.0 nM, samples 1-3, 0.025 µM): 49.4400 and 45.9563
cell proliferation inhibition rate ([1]; MDA-MB-231, 50.0 nM, samples 1-3, 0.05 µM): 73.2000 and 76.9811
cell proliferation inhibition rate ([1]; MDA-MB-231, 100.0 nM, samples 1-3, 0.1 µM): 86.0800 and 88.6718
cell proliferation inhibition rate ([1]; MDA-MB-231, 200.0 nM, samples 1-3, 0.2 µM): 94.2971 and 93.2186
cell proliferation inhibition rate ([2]; HCT116, 6.3 nM, samples 1-3, 0.0063 µM): 20.0440 and 13.1188
cell proliferation inhibition rate ([2]; HCT116, 12.5 nM, samples 1-3, 0.0125 µM): 43.4099 and 47.0957
cell proliferation inhibition rate ([2]; HCT116, 25.0 nM, samples 1-3, 0.025 µM): 66.2973 and 50.7426
cell proliferation inhibition rate ([2]; HCT116, 50.0 nM, samples 1-3, 0.05 µM): 79.2127 and 76.2156
cell proliferation inhibition rate ([2]; HCT116, 100.0 nM, samples 1-3, 0.1 µM): 80.3075 and 88.8251
cell proliferation inhibition rate ([2]; HCT116, 200.0 nM, samples 1-3, 0.2 µM): 98.8058 and 98.5677
inhibition at 0.0063 µM ([2]; Homo sapiens, HCT-116, 48 h, HCT116, 6.3 nM, samples 1-3, read-out: cell proliferation inhibition rate): 24.7%
inhibition at 0.0125 µM ([2]; Homo sapiens, HCT-116, 48 h, HCT116, 12.5 nM, samples 1-3, read-out: cell proliferation inhibition rate): 42.1%
inhibition at 0.025 µM ([2]; Homo sapiens, HCT-116, 48 h, HCT116, 25.0 nM, samples 1-3, read-out: cell proliferation inhibition rate): 54.9%
inhibition at 0.05 µM ([2]; Homo sapiens, HCT-116, 48 h, HCT116, 50.0 nM, samples 1-3, read-out: cell proliferation inhibition rate): 75.6%
inhibition at 0.1 µM ([2]; Homo sapiens, HCT-116, 48 h, HCT116, 100.0 nM, samples 1-3, read-out: cell proliferation inhibition rate): 83%
inhibition at 0.2 µM ([2]; Homo sapiens, HCT-116, 48 h, HCT116, 200.0 nM, samples 1-3, read-out: cell proliferation inhibition rate): 97.2%
IC50 ([2]; Homo sapiens, HCT-116, colon cancer cells HCT116, MTT): 18.88 ± 0.13 nM
cell proliferation inhibition rate ([3]; HepG2, 3.1 nM, 0.0031 µM): 28.7555 and 29.2302
cell proliferation inhibition rate ([3]; HepG2, 6.3 nM, 0.0063 µM): 39.8542 and 49.5151
cell proliferation inhibition rate ([3]; HepG2, 12.5 nM, 0.0125 µM): 51.8210 and 55.5307
cell proliferation inhibition rate ([3]; HepG2, 25.0 nM, 0.025 µM): 66.7752 and 69.1489
cell proliferation inhibition rate ([3]; HepG2, 50.0 nM, 0.05 µM): 79.9729 and 77.1075
cell proliferation inhibition rate ([3]; HepG2, 100.0 nM, 0.1 µM): 88.3181 and 85.8901
cell proliferation inhibition rate ([3]; HepG2, 200.0 nM, 0.2 µM): 99.2815 and 99.0448
inhibition at 0.0031 µM ([3]; Homo sapiens, HepG2, 48 h, HepG2, 3.1 nM, read-out: cell proliferation inhibition rate): 29%
inhibition at 0.0063 µM ([3]; Homo sapiens, HepG2, 48 h, HepG2, 6.3 nM, read-out: cell proliferation inhibition rate): 39.7%
inhibition at 0.0125 µM ([3]; Homo sapiens, HepG2, 48 h, HepG2, 12.5 nM, read-out: cell proliferation inhibition rate): 48.7%
inhibition at 0.025 µM ([3]; Homo sapiens, HepG2, 48 h, HepG2, 25.0 nM, read-out: cell proliferation inhibition rate): 68%
inhibition at 0.05 µM ([3]; Homo sapiens, HepG2, 48 h, HepG2, 50.0 nM, read-out: cell proliferation inhibition rate): 78.5%
inhibition at 0.1 µM ([3]; Homo sapiens, HepG2, 48 h, HepG2, 100.0 nM, read-out: cell proliferation inhibition rate): 88.2%
inhibition at 0.2 µM ([3]; Homo sapiens, HepG2, 48 h, HepG2, 200.0 nM, read-out: cell proliferation inhibition rate): 95.2%
